Experiments:
Assay type in all cases: cell-based, S. aureus
RAT mutant [1] = assay: Subinhibitory antibiotic added to growing culture at mid-log phase, optical density followed; conditions: 200 ng/ml penicillin (subinhibitory) added at OD650 nm of 0.5, mid-log phase, FIG. 1
Procedure: (§1) RAT plays a role in regulating autolytic activity of S. aureus. […] To evaluate whether the cell lysis of the RAT mutant was additive to the effect of a subinhibitory concentration of penicillin, 200 ng/ml of penicillin was added to a growing culture of the RAT mutant at an OD650 nm of 0.5, corresponding to the mid-log phase. […] This finding is consistent with the additive effect of penicillin upon the lytic propensity of the RAT mutant late in the growth cycle. […] In comparison to the parental strain without antibiotics, the RAT mutant with subinhibitory concentrations of penicillin has a 3–4 log kill.

RAT mutant [2] = assay: Plating of antibiotic-treated cultures on agar plates without antibiotic selection (kill)
Procedure: as §1

wild-type strain = assay: Subinhibitory antibiotic added to growing culture at mid-log phase, optical density followed; conditions: 200 ng/ml penicillin (subinhibitory) added at OD650 nm of 0.5, mid-log phase, FIG. 1

penicillin
change in optical density (cell lysis) after addition of antibiotic (RAT mutant [1]): further reduction in optical density | more kill of RAT mutant than the parental strain (RAT mutant [2]; cultures with subinhibitory antibiotic plated on agar without antibiotic selection, compared with parental strain): 1–2 log | kill of RAT mutant in comparison to the parental strain without antibiotics (RAT mutant [2]; subinhibitory concentrations of penicillin, compared with parental strain without antibiotics): 3–4 log | change in optical density (growth) after addition of antibiotic (wild-type strain): no increase in optical density

From US7148328B2, “Compositions and methods for regulating autolytic processes in bacteria” (Trustees of Dartmouth College, priority 2001, dated 2006)
